Experimental data published in US9474758B2, “Thienopyrimidinedione derivatives as TRPA1 modulators” (Glenmark Pharmaceuticals S.A., priority 2009, dated 2016).

Tests used:
[1] = target: T1, Human TRPA1 expressing CHO cells (Homo sapiens, UniProt O75762); experiment: 45Calcium uptake assay, inhibition of AITC induced calcium uptake (human); assay type: cell-based; details: human TRPA1 CHO cells, AITC 30 μM; for inhibition at 1 µM: compound 1.0 μM, read-out: Percentage inhibition at 1.0 μM; for inhibition at 10 µM: compound 10.0 μM, read-out: Percentage inhibition at 10.0 μM; for IC50: read-out: Human IC50 value (Range)
T1 construct: expressed in transfected cells; host or cells: CHO cells (G-418 selection)
Procedure: (§1) Screening for TRPA1 Antagonist Using the ^45Calcium Uptake Assay:
(§2) The inhibition of TRPA1 receptor activation was measured as inhibition of allyl isothiocyanate (AITC) induced cellular uptake of radioactive calcium.
(§3) Test compounds were dissolved in 100% DMSO to prepare 10 mM stock and then diluted using plain medium with 0.1% BSA and 1.8 mM CaCl2 to get the desired concentration. The final concentration of DMSO in the reaction was 0.5% (v/v). […] Rat TRPA1 expressing CHO cells were grown in F-12 DMEM medium with 10% FBS, 1% penicillin-streptomycin solution, and 400 μg/ml of Zeocin. […] Cells were treated with the test compounds for 10 minutes followed by the addition of AITC at a final concentration of 30 μM (for human TRPA1) and/or 10 μM (for rat TRPA1) and 5 μCi/ml ^45Ca^+2 for 3 minutes. Cells were washed and lysed using a buffer containing 1% Triton X-100, 0.1% deoxycholate and 0.1% SDS. Radioactivity in the lysate was measured in a Packard TopCount after addition of liquid scintillant.
(§4) Concentration response curves were plotted as a % of maximal response obtained in the absence of test antagonist. IC50 values can be calculated from concentration response curve by nonlinear regression analysis using GraphPad PRISM software.

[2] = target: T2, Rat TRPA1 expressing CHO cells (Rattus norvegicus, UniProt Q6RI86); experiment: 45Calcium uptake assay, inhibition of AITC induced calcium uptake (rat); assay type: cell-based; details: rat TRPA1 CHO cells, AITC 10 μM; for inhibition at 1 µM: compound 1.0 μM, read-out: Percentage inhibition at 1.0 μM; for inhibition at 10 µM: compound 10.0 μM, read-out: Percentage inhibition at 10.0 μM; for IC50: read-out: Rat IC50 value (Range)
T2 construct: expressed in transfected cells; host or cells: CHO cells (Zeocin selection)
Procedure: as §1, §2, §3, §4

T2 sequence (Q6RI86 whole entry): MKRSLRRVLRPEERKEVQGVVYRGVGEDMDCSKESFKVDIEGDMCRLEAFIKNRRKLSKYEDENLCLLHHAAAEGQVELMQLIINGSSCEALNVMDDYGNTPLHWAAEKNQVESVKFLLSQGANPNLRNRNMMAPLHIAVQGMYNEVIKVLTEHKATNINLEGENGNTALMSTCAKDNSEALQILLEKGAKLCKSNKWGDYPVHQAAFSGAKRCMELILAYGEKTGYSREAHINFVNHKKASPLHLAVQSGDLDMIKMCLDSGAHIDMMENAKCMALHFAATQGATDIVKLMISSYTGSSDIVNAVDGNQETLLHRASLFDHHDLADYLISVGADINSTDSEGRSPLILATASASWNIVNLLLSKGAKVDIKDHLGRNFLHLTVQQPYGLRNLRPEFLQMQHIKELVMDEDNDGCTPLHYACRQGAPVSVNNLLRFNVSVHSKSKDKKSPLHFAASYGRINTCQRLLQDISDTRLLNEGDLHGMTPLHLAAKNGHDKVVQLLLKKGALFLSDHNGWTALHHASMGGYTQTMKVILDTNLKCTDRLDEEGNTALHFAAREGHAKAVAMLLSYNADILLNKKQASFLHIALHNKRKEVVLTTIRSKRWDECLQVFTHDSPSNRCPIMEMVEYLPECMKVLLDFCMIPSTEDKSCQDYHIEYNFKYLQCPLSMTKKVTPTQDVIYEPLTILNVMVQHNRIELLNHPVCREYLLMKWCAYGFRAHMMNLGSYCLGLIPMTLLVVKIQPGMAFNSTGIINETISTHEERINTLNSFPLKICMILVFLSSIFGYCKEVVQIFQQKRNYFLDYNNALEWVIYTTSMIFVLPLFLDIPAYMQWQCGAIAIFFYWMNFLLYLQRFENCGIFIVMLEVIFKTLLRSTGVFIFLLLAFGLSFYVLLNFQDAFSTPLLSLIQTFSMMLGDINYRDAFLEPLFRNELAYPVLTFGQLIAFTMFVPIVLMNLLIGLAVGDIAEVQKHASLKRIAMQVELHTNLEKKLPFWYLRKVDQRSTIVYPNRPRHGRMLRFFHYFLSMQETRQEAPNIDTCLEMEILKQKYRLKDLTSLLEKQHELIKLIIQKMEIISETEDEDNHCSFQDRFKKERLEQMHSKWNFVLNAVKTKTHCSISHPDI
T1 sequence (O75762 whole entry): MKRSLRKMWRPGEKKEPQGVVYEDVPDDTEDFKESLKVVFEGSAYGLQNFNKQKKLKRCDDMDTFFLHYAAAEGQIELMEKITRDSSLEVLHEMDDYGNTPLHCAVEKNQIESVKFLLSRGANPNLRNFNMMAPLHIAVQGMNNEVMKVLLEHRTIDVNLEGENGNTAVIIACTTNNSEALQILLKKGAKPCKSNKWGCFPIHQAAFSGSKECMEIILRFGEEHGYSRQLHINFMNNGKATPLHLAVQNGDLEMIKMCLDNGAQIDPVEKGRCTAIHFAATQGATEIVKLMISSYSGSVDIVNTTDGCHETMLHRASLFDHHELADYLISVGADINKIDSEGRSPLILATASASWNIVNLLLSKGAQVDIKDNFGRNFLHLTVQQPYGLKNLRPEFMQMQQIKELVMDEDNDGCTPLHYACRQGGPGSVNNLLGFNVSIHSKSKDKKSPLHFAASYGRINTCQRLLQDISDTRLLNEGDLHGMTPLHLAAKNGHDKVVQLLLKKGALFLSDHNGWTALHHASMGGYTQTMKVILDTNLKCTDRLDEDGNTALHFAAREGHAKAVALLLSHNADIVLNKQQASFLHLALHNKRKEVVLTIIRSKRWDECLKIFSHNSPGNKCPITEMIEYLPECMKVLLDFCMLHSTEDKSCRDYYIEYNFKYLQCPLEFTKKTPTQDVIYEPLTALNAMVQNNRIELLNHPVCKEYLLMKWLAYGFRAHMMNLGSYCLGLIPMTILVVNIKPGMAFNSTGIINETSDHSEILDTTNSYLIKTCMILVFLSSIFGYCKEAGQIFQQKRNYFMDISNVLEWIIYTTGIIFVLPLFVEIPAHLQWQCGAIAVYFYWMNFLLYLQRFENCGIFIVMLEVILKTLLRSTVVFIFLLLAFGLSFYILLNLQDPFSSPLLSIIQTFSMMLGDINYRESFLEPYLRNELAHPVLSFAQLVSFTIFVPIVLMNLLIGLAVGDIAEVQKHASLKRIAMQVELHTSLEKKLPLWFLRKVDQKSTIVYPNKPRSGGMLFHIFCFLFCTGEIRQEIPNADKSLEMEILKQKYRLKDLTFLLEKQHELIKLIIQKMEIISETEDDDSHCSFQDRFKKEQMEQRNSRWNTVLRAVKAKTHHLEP

SMILES | inhibition at 1 µM [1] | inhibition at 10 µM [1] | IC50 [1] | inhibition at 1 µM [2] | inhibition at 10 µM [2] | IC50 [2]
Cn1c(=O)c2c(CC(=O)Nc3nc(-c4ccc(C(F)(F)F)cc4F)cs3)scc2n(C)c1=O [Example 51, 2-(1,3-Dimethyl-2,4-dioxo-1,2,3,4-tetrahydrothieno[3,4-d]pyrimidin-5-yl)-N-{4-[2-fluoro-4-(trifluoromethyl)phenyl]-1,3-thiazol-2-yl}acetamide] | 96.9% | 99.7% | < 50 nM | 93% | 100% | 50 to 500 nM
Cc1sc2c(c1CC(=O)Nc1nc(-c3ccc(F)c(C(F)(F)F)c3F)cs1)c(=O)n(C)c(=O)n2C [Example 27, N-{4-[2,4-Difluoro-3-(trifluoromethyl)phenyl]-1,3-thiazol-2-yl}-2-(1,3,6-trimethyl-2,4-dioxo-1,2,3,4-tetrahydrothieno[2,3-d]pyrimidin-5-yl)acetamide] | 93.2% | 99.1% | < 50 nM | 97.9% | 98% | 50 to 500 nM
Cc1sc2c(c1CC(=O)Nc1nc(-c3ccc(F)c(C(F)(F)F)c3)cs1)c(=O)n(C)c(=O)n2C [Example 23, N-{4-[4-Fluoro-3-(trifluoromethyl)phenyl]-1,3-thiazol-2-yl}-2-(1,3,6-trimethyl-2,4-dioxo-1,2,3,4-tetrahydrothieno[2,3-d]pyrimidin-5-yl)acetamide] | 97.7% | 99% | < 50 nM | 100% | 99.7% | 50 to 500 nM
Cn1c(=O)c2c(CC(=O)Nc3nc(-c4ccc(F)c(C(F)(F)F)c4)cs3)scc2n(C)c1=O [Example 49, 2-(1,3-Dimethyl-2,4-dioxo-1,2,3,4-tetrahydrothieno[3,4-d]pyrimidin-5-yl)-N-{4-[4-fluoro-3-(trifluoromethyl)phenyl]-1,3-thiazol-2-yl}acetamide] | 96% | 99.8% | < 50 nM | 89.9% | 99% | 50 to 500 nM
CCc1sc2c(c1CC(=O)Nc1nc(-c3cc(F)c(OC(F)F)c(F)c3)cs1)c(=O)n(C)c(=O)n2C [Example 33, N-{4-[4-(Difluoromethoxy)-3,5-difluorophenyl]-1,3-thiazol-2-yl}-2-(6-ethyl-1,3-dimethyl-2,4-dioxo-1,2,3,4-tetrahydrothieno[2,3-d]pyrimidin-5-yl)acetamide] | 96.9% | 96.9% | < 50 nM | 96.5% | 97.3% | 50 to 500 nM
Cn1c(=O)c2c(CC(=O)Nc3nc(-c4cc(F)c(OC(F)F)c(F)c4)cs3)scc2n(C)c1=O [Example 59, N-{4-[4-(Difluoromethoxy)-3,5-difluorophenyl]-1,3-thiazol-2-yl}-2-(1,3-dimethyl-2,4-dioxo-1,2,3,4-tetrahydrothieno[3,4-d]pyrimidin-5-yl)acetamide] | 89.3% | 91.4% | < 50 nM | 12.7% | 87.6% | 
CCc1sc2c(c1CC(=O)Nc1nc(-c3ccc(F)c(C(F)(F)F)c3F)cs1)c(=O)n(C)c(=O)n2C [Example 32] | 99.2% | 99.3% | < 50 nM | 99.9% | 98.8% | < 50 nM
Cc1sc2c(c1CC(=O)Nc1nc(-c3cccc(OC(F)(F)F)c3)c[nH]1)c(=O)n(C)c(=O)n2C [Example 28, N-[4-(3-Trifluoromethoxyphenyl)-1H-imidazol-2-yl]-2-(1,3,6-trimethyl-2,4-dioxo-1,2,3,4-tetrahydrothieno[2,3-d]pyrimidin-5-yl)acetamide] | 10% | 46.8% |  |  |  | 
Cc1sc2c(c1CC(=O)Nc1nc(-c3ccc(C(F)(F)F)c(F)c3)c[nH]1)c(=O)n(C)c(=O)n2C [Example 29, N-{4-[3-Fluoro-4-(trifluoromethyl)phenyl]-1H-imidazol-2-yl}-2-(1,3,6-trimethyl-2,4-dioxo-1,2,3,4-tetrahydrothieno[2,3-d]pyrimidin-5-yl)acetamide] | 91.7% | 98% | 50 to 500 nM |  |  | 

Results, then the compound that gave them:

inhibition at 1 µM [1] | inhibition at 10 µM [1] | IC50 [1] | inhibition at 1 µM [2] | inhibition at 10 µM [2] | IC50 [2] | SMILES
89.8% | 100% | 50 to 500 nM | 89.8% | 99.8% |  | Cc1sc2c(c1CC(=O)Nc1nc(-c3ccc(F)cc3F)cs1)c(=O)n(C)c(=O)n2C [Example 22, N-[4-(2,4-Difluorophenyl)-1,3-thiazol-2-yl]-2-(1,3,6-trimethyl-2,4-dioxo-1,2,3,4-tetrahydrothieno[2,3-d]pyrimidin-5-yl)acetamide]
100% | 100% | < 50 nM | 98.2% | 98.1% | 50 to 500 nM | Cc1sc2c(c1CC(=O)Nc1nc(-c3ccc(OC(F)(F)F)c(F)c3)cs1)c(=O)n(C)c(=O)n2C [Example 26, N-{4-[3-Fluoro-4-(trifluoromethoxy)phenyl]-1,3-thiazol-2-yl}-2-(1,3,6-trimethyl-2,4-dioxo-1,2,3,4-tetrahydrothieno[2,3-d]pyrimidin-5-yl)acetamide]
95% | 98.2% | 50 to 500 nM | 89.4% | 99.2% |  | Cc1sc2c(c1CC(=O)Nc1nc(-c3ccc(Cl)cc3)cs1)c(=O)n(C)c(=O)n2C [Example 19, N-[4-(4-Chlorophenyl)-1,3-thiazol-2-yl]-2-(1,3,6-trimethyl-2,4-dioxo-1,2,3,4-tetrahydrothieno[2,3-d]pyrimidin-5-yl)acetamide]
29.1% | 99.5% |  |  |  |  | CC(C)Cc1ccc(-c2csc(NC(=O)Cc3csc4c3c(=O)n(C)c(=O)n4C)n2)cc1 [Example 4, 2-(1,3-Dimethyl-2,4-dioxo-1,2,3,4-tetrahydrothieno[2,3-d]pyrimidin-5-yl)-N-[4-(4-isobutylphenyl)-1,3-thiazol-2-yl]acetamide]
13.2% | 46% |  |  |  |  | Cn1c(=O)c2c(CC(=O)Nc3nc(C(F)(F)F)cs3)csc2n(C)c1=O [Example 1, 2-(1,3-Dimethyl-2,4-dioxo-1,2,3,4-tetrahydrothieno[2,3-d]pyrimidin-5-yl)-N-[4-(trifluoromethyl)-1,3-thiazol-2-yl]acetamide]
25% | 87.9% |  |  |  |  | Cn1c(=O)c2c(CC(=O)Nc3cc(-c4ccc(Cl)cc4)no3)csc2n(C)c1=O [Example 38, N-[3-(4-Chlorophenyl)isoxazol-5-yl]-2-(1,3-dimethyl-2,4-dioxo-1,2,3,4-tetrahydrothieno[2,3-d]pyrimidin-5-yl)acetamide]
99.9% | 100% | < 50 nM |  |  |  | Cn1c(=O)c2c(CC(=O)Nc3ccn(-c4ccc(Br)cc4)n3)csc2n(C)c1=O [Example 40, N-[1-(4-Bromophenyl)-1H-pyrazol-3-yl]-2-(1,3-dimethyl-2,4-dioxo-1,2,3,4-tetrahydrothieno[2,3-d]pyrimidin-5-yl)acetamide]
9.74% | 74.6% |  |  |  |  | Cn1c(=O)c2c(CC(=O)Nc3nnc(-c4ccc(Br)cc4)s3)csc2n(C)c1=O [Example 42, N-[5-(4-Bromophenyl)-1,3,4-thiadiazol-2-yl]-2-(1,3-dimethyl-2,4-dioxo-1,2,3,4-tetrahydrothieno[2,3-d]pyrimidin-5-yl)acetamide]
60% | 96.8% |  |  |  |  | Cn1c(=O)c2c(CC(=O)Nc3nc(-c4ccc(C(F)(F)F)c(F)c4F)cs3)csc2n(C)c1=O [Example 15, N-{4-[2,3-Difluoro-4-(trifluoromethyl)phenyl]-1,3-thiazol-2-yl}-2-(1,3-dimethyl-2,4-dioxo-1,2,3,4-tetrahydrothieno[2,3-d]pyrimidin-5-yl)acetamide]
30.5% | 4.42% |  |  |  |  | Cn1c(=O)c2c(CC(=O)Nc3nccc(-c4ccc(Br)cc4)n3)csc2n(C)c1=O [Example 43, N-[4-(4-Bromophenyl)pyrimidin-2-yl]-2-(1,3-dimethyl-2,4-dioxo-1,2,3,4-tetrahydrothieno[2,3-d]pyrimidin-5-yl)acetamide]
47.8% | 78.6% |  |  |  |  | Cn1c(=O)c2c(CC(=O)Nc3cc(-c4ccc(Br)cc4)on3)csc2n(C)c1=O [Example 39, N-[5-(4-Bromophenyl)isoxazol-3-yl]-2-(1,3-dimethyl-2,4-dioxo-1,2,3,4-tetrahydrothieno[2,3-d]pyrimidin-5-yl)acetamide]
